Results published in patent publication US4377576A, “5-(Heterocyclic amino-propionyl)-5,10-dihydro-11H-dibenzo[b,e][1,4]diazepin-11-ones” (Karl Thomae Gesellschaft mit beschrankter Haftung, priority 1980, dated 1983).
Structures can show the parent of a compound that is named as a salt.

Columns and labels:
[1] = test system: gastric secretion (free and total hydrochloric acid in the gastric fluid); experiment: Inhibition of gastric fluid secretion (liberation of acid), pylorus ligature, method of Shay et al.; type: in vivo, male Crl:COBS (WI) BR Albino rats; conditions: Rat, i.d., 4 hours after pylorus ligature
Protocol: The inhibiting activity on the gastric secretion was tested in male Crl:COBS (WI) BR Albino rats having a weight of 100 to 125 gm, according to the method of Shay et al., Gastroenterology 26, 906 (1954). The rats were fasted for 24 hours and then anesthetized with ether. The […] was opened, and the pylorus was tied up. […] The control animals received the same volume of the vehicle (0.2% methyl cellulose solution). After 4 hours the animals were killed by dislocating the neck vertebra, the stomachs were removed, opened along the great curvature and the gastric fluid collected. The free and total hydrochloric acid in the gastric fluid was measured by titration with N/10 sodium hydroxide solution. The results were determined in percent from the data received from the treated and untreated animals. The ED50 values were calculated by linear regression analysis of the probits according to the method described by D. J. Finney, Probit Analysis, Cambridge University Press, 1971.

[2] = test system: stomach ulcers; experiment: Inhibiting effect on the formation of stomach ulcers (acetyl salicylic acid and close-meshed wire cage), method of P. A. Brown; type: in vivo, female Crl:COBS-CD(SD)Br rats; conditions: po, 0.5 h; Rat, p.o., acetyl salicylic acid 30 min after compound, then wire cage; read-out: Ulcer Inhibition ED50
Protocol: The inhibiting effect on the formation of stomach ulcers was tested in female Crl:COBS-CD(SD)Br rats having a weight of 130 to 160 gm, according to the method of P. A. Brown, European J. Pharmacol. 51, 275 (1978). The animals were fasted for 24 hours, and the compounds were suspended in a 0.2% methyl cellulose solution and administered to the animals using an esophageal tube. After 30 minutes the animals received acetyl salicylic acid perorally at a dose of 8 mg/kg, and after another 30 minutes the animals were placed at room temperature into a close-meshed wire cage. After one hour the animals were killed by dislocating the neck vertebra, the stomach was removed, opened by cutting along the great curvature, the inner side was outwardly spread out on a test tube, and the presence of stomach ulcers was recorded. The activity of the compounds was determined by counting the numbers of stomachs which were free of ulcers. The ED50 was calculated according to the method described by J. T. Litchfield and F. Wilcoxon, J. Pharmac. Exp. Therap. 96, 99 (1949).

[3] = Mydriasis: effect on the size of the pupil; set-up: species or system male Crl:COBS-CD(SD)BR rats; conditions: in vivo, po; Rat, percent of maximum pupil diameter obtained by atropine, 30-120 min
Protocol: The effect on the size of the pupil was tested in male Crl:COBS-CD(SD)BR rats having a body weight of 100 to 130 gm by using a […]-binocular microscope with a graduated lens and a 10-fold magnification. The compounds were suspended in a 0.2% methyl cellulose solution and administered using an esophageal tube; groups of 5 animals were used per dose. The control animals received the same volume (1 ml/100 gm of body weight) of the vehicle. The diameter of the pupil was measured before administering the test compound, and 30, 60, 90 and 120 minutes after the treatment. The activity was expressed in percent with regard to the maximum diameter obtained by means of atropine. The ED50 was determined by linear regression analysis of the probits according to the method described by D. J. Finney (supra).

[4] = Acute toxicity; conditions: in vivo, po; Mouse
Protocol: The acute toxicity was determined in male CrL-COBS-CD-I(ICR) mice of an average body weight of 22 to 24 gm which had been fasted for 24 hours. Different doses of each compound were administered to groups of 5 to 10 animals by means of an esophageal tube, and the LD50 -values were calculated by the method of D. J. Finney (supra).

SMILES	ED50 [1] [mg/kg]	ED50 [2] [mg/kg]	ED50 [3] [mg/kg]	LD50 [4] [mg/kg]
Cl.O=C1Nc2ccccc2N(C(=O)CCN2CCCC2)c2ccccc21 [A, 5,10-dihydro-5-(3-pyrrolidino-propionyl)-11H-dibenzo[b,e][1,4]diazepin-11-one hydrochloride]	0.2	1.27	3.61	609
CN1C(=O)c2ccccc2N(C(=O)CCN2CCCC2)c2ccccc21 [B, 5,10-dihydro-10-methyl-5-(3-pyrrolidino-propionyl)-11H-dibenzo[b,e,][1,4]diazepin-11-one hydrochloride]	0.73	2.05	–	574
Cl.O=C1Nc2ccccc2N(C(=O)CCN2CCCCC2)c2ccccc21 [C, 5,10-dihydro-5-(3-piperidino-propionyl)-11H-dibenzo[b,e][1,4]diazepin-11-one hydrochloride]	1.6	2.1	3.84	813
O=C1Nc2ccccc2N(C(=O)CN2CCCC2)c2ccccc21 [D, 5,10-dihydro-5-(pyrrolidino-acetyl)-11H-dibenzo[b,e][1,4]diazepin-11-one]	8.15	10.2	9.91	860
CN1C(=O)c2ccccc2N(C(=O)CN2CCCC2)c2ccccc21 [E, 5,10-dihydro-10-methyl-5-(pyrrolidino-acetyl)-11H-dibenzo[b,e,][1,4]diazepin-11-one hydrochloride]	18.1	8.4	9.84	816
O=C1Nc2ccccc2N(C(=O)CN2CCCCC2)c2ccccc21 [F, 5,10-dihydro-5-(piperidino-acetyl)-11H-dibenzo[b,e,][1,4]diazepin-11-one]	6.17	10.4	5.82	600
